Active and inactive are the calls of the source.
Key:
[1] = biological target: T1, Replicative DNA helicase DnaB (Mycobacterium tuberculosis, UniProt P9WMR3); test: DnaB intein splicing inhibitors, dose response, biochemical, cell-free fluorescence (AID 449749); assay type: functional
T1 sequence (P9WMR3 whole entry): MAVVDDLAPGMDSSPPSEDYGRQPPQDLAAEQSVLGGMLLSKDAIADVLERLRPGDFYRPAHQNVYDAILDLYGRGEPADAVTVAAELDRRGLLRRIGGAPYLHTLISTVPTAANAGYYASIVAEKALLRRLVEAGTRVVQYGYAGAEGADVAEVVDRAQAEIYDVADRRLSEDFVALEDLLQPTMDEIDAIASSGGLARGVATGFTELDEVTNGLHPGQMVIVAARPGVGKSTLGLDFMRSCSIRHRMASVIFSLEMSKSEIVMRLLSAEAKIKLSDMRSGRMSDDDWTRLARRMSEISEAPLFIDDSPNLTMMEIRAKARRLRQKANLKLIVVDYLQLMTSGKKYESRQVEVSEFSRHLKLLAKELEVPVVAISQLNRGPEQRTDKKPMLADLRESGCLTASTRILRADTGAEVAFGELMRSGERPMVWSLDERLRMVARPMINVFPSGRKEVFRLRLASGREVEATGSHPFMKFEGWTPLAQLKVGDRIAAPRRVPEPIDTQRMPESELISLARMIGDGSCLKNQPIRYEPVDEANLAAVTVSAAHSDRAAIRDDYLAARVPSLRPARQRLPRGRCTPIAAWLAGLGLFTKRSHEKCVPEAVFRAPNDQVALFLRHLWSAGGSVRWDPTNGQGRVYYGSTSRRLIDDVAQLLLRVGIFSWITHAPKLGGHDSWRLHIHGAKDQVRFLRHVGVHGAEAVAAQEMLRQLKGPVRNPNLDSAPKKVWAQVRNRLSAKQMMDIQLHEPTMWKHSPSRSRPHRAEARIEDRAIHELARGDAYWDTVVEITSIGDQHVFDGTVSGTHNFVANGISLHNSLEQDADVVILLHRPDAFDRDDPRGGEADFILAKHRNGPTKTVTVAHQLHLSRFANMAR

Protein RecA = biological target: T2, Protein RecA (Mycobacterium tuberculosis, UniProt P9WHJ3); test: Fluorescence Cell-Free Homogeneous Dose Retest to Identify Inhibitors of RecA-Intein Splicing Activity. [Related pubchem assays (depositor defined):AID2097, AID2223, AID489010, AID492950]; assay type: functional
T2 sequence (P9WHJ3 whole entry): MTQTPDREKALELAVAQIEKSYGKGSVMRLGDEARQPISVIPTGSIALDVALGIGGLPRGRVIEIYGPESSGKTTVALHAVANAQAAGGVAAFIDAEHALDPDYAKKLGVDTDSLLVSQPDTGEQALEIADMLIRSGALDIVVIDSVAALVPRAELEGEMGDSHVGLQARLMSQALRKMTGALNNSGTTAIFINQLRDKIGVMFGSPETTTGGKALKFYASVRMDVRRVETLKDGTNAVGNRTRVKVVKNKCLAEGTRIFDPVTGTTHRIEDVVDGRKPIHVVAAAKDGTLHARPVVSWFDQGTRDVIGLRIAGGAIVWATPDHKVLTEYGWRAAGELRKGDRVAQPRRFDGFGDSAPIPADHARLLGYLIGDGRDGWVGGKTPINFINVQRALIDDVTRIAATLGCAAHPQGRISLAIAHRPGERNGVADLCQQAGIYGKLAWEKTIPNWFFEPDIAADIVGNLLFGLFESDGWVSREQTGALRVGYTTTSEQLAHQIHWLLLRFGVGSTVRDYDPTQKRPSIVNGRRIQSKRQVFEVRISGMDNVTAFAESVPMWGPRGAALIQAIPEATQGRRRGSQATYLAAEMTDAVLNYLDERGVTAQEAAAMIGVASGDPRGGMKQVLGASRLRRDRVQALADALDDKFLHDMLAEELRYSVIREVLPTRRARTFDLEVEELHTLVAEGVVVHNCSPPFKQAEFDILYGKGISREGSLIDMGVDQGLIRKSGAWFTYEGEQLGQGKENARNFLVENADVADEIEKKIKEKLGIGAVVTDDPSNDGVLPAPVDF

Beta-galactosidase = Beta-galactosidase (Escherichia coli, UniProt Q8VNN2); test: beta-galactosidase enzyme inhibitors and activators, dose response, artefact control for CCR6 antagonist project, biochemical, E. coli enzyme, set 3 (AID 504712); assay type: functional
Chain of Beta-galactosidase (Q8VNN2 whole entry): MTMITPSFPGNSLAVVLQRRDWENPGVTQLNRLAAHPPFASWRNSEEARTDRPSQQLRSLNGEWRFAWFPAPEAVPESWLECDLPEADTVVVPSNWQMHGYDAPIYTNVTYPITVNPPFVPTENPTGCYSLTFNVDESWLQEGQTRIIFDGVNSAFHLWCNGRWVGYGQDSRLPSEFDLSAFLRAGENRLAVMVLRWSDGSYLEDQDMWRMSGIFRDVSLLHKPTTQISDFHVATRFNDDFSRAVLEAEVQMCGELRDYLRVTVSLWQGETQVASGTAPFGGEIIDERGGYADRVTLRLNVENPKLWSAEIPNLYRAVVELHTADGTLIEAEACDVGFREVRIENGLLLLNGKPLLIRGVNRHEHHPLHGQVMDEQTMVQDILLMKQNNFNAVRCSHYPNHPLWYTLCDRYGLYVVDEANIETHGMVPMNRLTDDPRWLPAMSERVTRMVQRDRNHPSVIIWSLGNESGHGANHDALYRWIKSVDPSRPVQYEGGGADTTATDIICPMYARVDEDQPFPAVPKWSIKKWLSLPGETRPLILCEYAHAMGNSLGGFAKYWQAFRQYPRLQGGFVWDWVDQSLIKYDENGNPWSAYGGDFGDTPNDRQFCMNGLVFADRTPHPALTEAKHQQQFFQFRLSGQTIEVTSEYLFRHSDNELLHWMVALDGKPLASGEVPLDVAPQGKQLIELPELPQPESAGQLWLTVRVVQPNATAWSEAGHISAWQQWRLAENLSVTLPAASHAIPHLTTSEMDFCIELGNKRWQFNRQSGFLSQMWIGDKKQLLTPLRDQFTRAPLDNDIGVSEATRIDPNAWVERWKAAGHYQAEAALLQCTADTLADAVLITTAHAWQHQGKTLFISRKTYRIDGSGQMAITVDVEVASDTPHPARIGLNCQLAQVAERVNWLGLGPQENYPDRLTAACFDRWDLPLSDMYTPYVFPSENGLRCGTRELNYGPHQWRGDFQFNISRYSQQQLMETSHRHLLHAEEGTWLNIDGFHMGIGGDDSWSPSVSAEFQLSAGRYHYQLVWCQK

[2] = viability loss in BJeLR (HRASV12) cells, primary screen, Ras selective lethality project, cell-based, Alamar Blue, dry powder (AID 493045); assay type: functional
[3] = viability loss in HRASV12 DRD fibroblasts, dose response, cell-based, DRD BJ fibroblasts, dry powder (AID 493049); assay type: functional
[4] = cytotoxicity in BJeHLT fibroblasts, dose response, counter-screen for Ras selective lethality project, BJeHLT cells, dry powder (AID 493052); assay type: functional, cell-based; settings: Homo sapiens
[5] = cytotoxicity in BJeH fibroblasts, dose response, counter-screen for Ras selective lethality project, BJeH cells, dry powder (AID 493054); assay type: functional, cell-based
[6] = biological target: Polyadenylate-binding protein 1 (Homo sapiens, UniProt P11940); test: PABP inhibition in translation initiation, SAR follow-up (AID 435018); assay type: functional
Chain of Polyadenylate-binding protein 1 (P11940 whole entry): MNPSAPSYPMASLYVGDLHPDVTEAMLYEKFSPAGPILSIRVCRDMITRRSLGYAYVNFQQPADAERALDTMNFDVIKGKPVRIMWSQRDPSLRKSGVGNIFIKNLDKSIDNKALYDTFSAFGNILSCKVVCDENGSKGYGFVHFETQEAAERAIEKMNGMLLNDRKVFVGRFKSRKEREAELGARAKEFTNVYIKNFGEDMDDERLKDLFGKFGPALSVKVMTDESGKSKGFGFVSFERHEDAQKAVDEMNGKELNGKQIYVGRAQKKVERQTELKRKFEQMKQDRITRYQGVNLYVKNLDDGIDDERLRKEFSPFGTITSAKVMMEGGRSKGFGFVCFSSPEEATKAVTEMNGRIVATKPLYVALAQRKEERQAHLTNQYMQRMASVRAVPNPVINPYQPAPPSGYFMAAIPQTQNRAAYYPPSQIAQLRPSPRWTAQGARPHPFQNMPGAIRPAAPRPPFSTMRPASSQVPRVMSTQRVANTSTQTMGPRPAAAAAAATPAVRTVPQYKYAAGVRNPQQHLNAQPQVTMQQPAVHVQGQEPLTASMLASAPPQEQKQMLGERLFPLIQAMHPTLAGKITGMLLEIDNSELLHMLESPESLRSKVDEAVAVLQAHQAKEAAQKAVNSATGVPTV

[7] = biological target: Eukaryotic translation initiation factor 4H (Homo sapiens, UniProt Q15056); test: eIF4H inhibition in translation initiation, SAR follow-up (AID 435011); assay type: functional
Caspase-7 = Caspase-7 (Homo sapiens, UniProt P55210); test: procaspase-7 activators, dose response, counter-screen for procaspase-3 activator project, biochemical, absorbance (AID 489013)
Chain of Caspase-7 (P55210 24-198 limits assumed): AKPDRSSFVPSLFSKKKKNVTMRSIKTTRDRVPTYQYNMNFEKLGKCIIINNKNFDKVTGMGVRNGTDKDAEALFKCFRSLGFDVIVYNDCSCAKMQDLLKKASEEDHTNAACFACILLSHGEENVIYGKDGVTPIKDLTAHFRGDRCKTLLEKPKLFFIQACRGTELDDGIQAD
Chain of Caspase-7 (P55210 207-303 limits assumed): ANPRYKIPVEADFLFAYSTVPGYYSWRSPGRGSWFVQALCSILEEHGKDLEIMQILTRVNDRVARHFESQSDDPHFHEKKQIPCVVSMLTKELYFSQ

[8] = biological target: T3, Probable nicotinate-nucleotide adenylyltransferase (Staphylococcus aureus (strain N315), UniProt P65502); assay type: functional, Staphylococcus aureus subsp. aureus N315; settings: read-out: IC50_Mean;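 for IC50 Mean: confirmatory dose-response retesting of NadD inhibitor hits first found in an ultra-high-throughput screen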
T3 sequence (P65502 whole entry): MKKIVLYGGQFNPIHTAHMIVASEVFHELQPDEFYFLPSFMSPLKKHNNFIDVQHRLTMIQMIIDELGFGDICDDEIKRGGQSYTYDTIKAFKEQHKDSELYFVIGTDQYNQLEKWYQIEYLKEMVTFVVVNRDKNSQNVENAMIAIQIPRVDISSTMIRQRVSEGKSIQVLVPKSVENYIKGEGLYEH

[9] = biological target: T3, Probable nicotinate-nucleotide adenylyltransferase; assay type: functional, Staphylococcus aureus subsp. aureus N315
[10] = growth suppression of beta-catenin-knockout colon cells, dose response, cell-based, HCT116, human colon tumor (AID 1045); assay type: functional;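 note: HCT116 colon tumor cells with beta catenin knocked out; cells exposed to compound for 60 hours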
[11] = growth suppression of PTEN-null colon cells, dose response, cell-based, HCT116 PTEN knockout (AID 1047); assay type: functional;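 note: HCT116 colon tumor cells with PTEN knocked out; cells exposed to compound for 60 hours before readout; potency for loss of cell viability measured by luminescence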
Caspase-3 = biological target: T4, Caspase-3 (Homo sapiens, UniProt P42574); test: procaspase-3 activators, dose response, biochemical, absorbance (AID 489014)
T4 sequence (P42574 whole entry): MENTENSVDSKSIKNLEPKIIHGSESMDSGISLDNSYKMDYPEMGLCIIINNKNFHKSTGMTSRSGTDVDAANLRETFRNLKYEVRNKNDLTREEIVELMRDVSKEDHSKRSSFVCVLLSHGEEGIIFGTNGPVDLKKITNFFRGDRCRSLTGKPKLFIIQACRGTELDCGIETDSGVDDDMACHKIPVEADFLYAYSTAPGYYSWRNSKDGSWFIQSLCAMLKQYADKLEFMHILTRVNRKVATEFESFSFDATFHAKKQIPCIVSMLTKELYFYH

INS1 = test: beta cell apoptosis inhibitors, cytokine rescue, dose response, luminescence, retest (AID 449756); assay type: functional, cell-based; settings: Rattus norvegicus;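 note: cell death triggered by IL-1 beta plus TNF-alpha plus IFN-gamma mixture; protective hits raise ATP signal compared with cytokine alone wells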
[12] = HEp-2 cell cytotoxicity, dose response, cytotoxicity control for RSV inhibitor project, HTS (AID 2410); assay type: functional; settings: human respiratory syncytial virus

Q: Which AC50 [1] does the source give for N#Cc1cc([N+](=O)[O-])c(-n2nnc3ccccc32)c([N+](=O)[O-])c1 here?
A: 7.31 µM (active)

Q: And the EC50 (Protein RecA)?
A: 25.9 µM (active)

Q: And the IC50 (Beta-galactosidase)?
A: > 66.6 µM (inactive)

Q: For COc1ccc(N(C(=O)CCl)C(C(=O)NCCc2ccccc2)C2CCCCC2)cc1Cl (configuration not stated), which AC50 [2] is on record?
A: 0.505 µM (active)

Q: And the AC50 [3]?
A: 0.496 µM (active)

Q: What about the AC50 [4] of the same molecule?
A: 1.18 µM (active)

Q: What about the AC50 [5] of the same molecule?
A: 1.48 µM (active)

Q: With Cc1ccc(NC(=O)C2CCN(C(=O)c3cccs3)CC2)cc1 as the molecule, how does the IC50 [6] read?
A: > 100 µM (inactive)

Q: What about the IC50 [7] of the same molecule?
A: > 100 µM (inactive)

Q: With C=CCn1/c(=N/C(=O)c2cc(-c3cccs3)nc3ccccc23)sc2cc(S(N)(=O)=O)ccc21 as the molecule, how does the EC50 (Caspase-7) read?
A: > 3.16 µM (active)

Q: And the IC50 [8]?
A: 21.6 µM (active)

Q: What about the IC50 [9] of the same molecule?
A: 11.5 µM (active)

Q: What about the EC50 [10] of the same molecule?
A: 30.1 µM (active)

Q: What about the EC50 [11] of the same molecule?
A: 25.3 µM (active)

Q: What about the EC50 (Caspase-3) of the same molecule?
A: 3.26 µM (active)

Q: And the AC50 (INS1)?
A: 19.3 µM (active)

Q: What about the CC50 [12] of the same molecule?
A: 17.2 µM (active)

From ChEMBL document CHEMBL1201862, “PubChem BioAssay data set” (2004)
